Reference: patent US7902195B2, “Pyridine [3,4-b] pyrazinones” (Pharmacia & Upjohn Company LLC, priority 2006, dated 2011)
pIC50: −log10 of the molar value.

target: T1, PDE5 enzyme isolated from human platelets (Homo sapiens, UniProt O76074); test: Alternative human platelet PDE5 enzyme inhibition scintillation proximity assay (Method 2); assay type: biochemical; details: cGMP substrate 50 nM, 60 minutes at room temperature
T1 construct: The PDE5 enzyme for use in the assay can be obtained from human platelets; from tissue; host or cells: human platelets
From the text: The IC50 of a test compound can be measured using an in vitro assay using PDE5 enzyme isolated from human platelets. The IC50 is the concentration of test compound required to inhibit the hydrolysis of cGMP to GMP by the PDE5 enzyme by 50% relative to the activity of uninhibited controls. The PDE5 enzyme for use in the assay can be obtained from human platelets by appropriate modification of the method of Thompson, W J et al.; Biochemistry 18(23), 5228-5237, 1979, as described by Ballard S A et al.; J. Urology 159(6), 2164-2171, 1998. The PDE5 enzyme so obtained can be used to catalyze the hydrolysis of [^3H]cGMP (Amersham Biosciences) to 5′ nucleotide [^3H]GMP. The [^3H]GMP binds to yttrium silicate SPA beads (Amersham Biosciences) and is detected by scintillation counting. More specifically, the effect of a test compound at different concentrations can be evaluated in the assay by contacting the compound with a fixed amount of PDE5 enzyme in the presence of substrate (cGMP […] in a 3:1 ratio unlabelled to [^3H]-labeled). Scintillation counting can be used as described above to determine relative PDE5 enzyme activity. The inhibition of PDE5 enzyme activity is then calculated relative to total PDE5 enzyme activity of uninhibited controls.
Method 2: Alternative Human Platelet PDE5 Enzyme Inhibition Scintillation Proximity Assay
PDE5 IC50 Assay: 96-Well Microtiter Plate Format
Buffer A: 20 mM Tris-HCl, 5 mM MgCl2, pH 7.4
Buffer B: 2 mg/ml BSA in Buffer A (enzyme buffer)
cGMP substrate: Final concentration of 50 nM in assay
The amount of ^3H-labeled substrate added depends upon the specific activity of [^3H]cGMP, and it is diluted in Buffer A.
PDE enzyme: Prepared in Buffer B. The dilution factor is determined by enzyme activity.
SPA beads: 4 mg/ml suspension prepared in dH2O.
Stocks of standard and test compound are prepared at 2 mM in 100% DMSO. The test compound is serially diluted in a dilution plate using an 8-point ⅕ log dilution format such that the starting concentration in the assay is 2 μM for an initial IC50 screen. 27 μl of Buffer A are added to the wells of the assay plates. From the dilution plate, 3 μl of diluted compound is delivered in duplicate or 3 μl of 100% DMSO (for positive and negative controls) are added. 30 μl of enzyme are added. For the negative control wells, Buffer B is substituted in place of the enzyme. 30 μl of labeled substrate are added to all wells.
After incubating for 60 minutes at room temperature, the reaction is stopped with the addition of 30 μl of the yttrium silicate beads. These beads are dense and require constant agitation while being added to the plate. The plates are sealed and shaken on a plate shaker for fifteen minutes to allow the beads to bind the GMP product.
After allowing the beads to settle for 30 minutes, plates are read on a NXT TopCount scintillation counter and the data are analyzed as follows. Percent inhibition values are calculated using the means of the 0% and 100% controls on each plate. The estimates of the 4-parameters of the logistic, sigmoid dose-response model are then calculated using the well-level percent inhibition value for the compound. The formula for the four-parameter logistic model may be expressed as Y=((a−d)/(1+(X/c)^b))+d, where Y is the response, X is the concentration, a is the lower asymptote (minimum response), d is the upper asymptote (maximum response), c is the model IC50 (in the same units as X), and b is the slope (as described in De Lean, A., P. J. Munson, and D. Rodbard (“Simultaneous analysis of families of sigmoidal curves: application to bioassay, radioligand assay, and physiological dose-response curves.” Am. J. Physiol. 235(2): E97-E102, 1978). These estimates are used to calculate the concentration that corresponds to 50% inhibition.
Compounds were tested in accordance with Method 2 above yielding the IC50 values described in Table C.

First: 7-(4-(dimethylamino)-2-methylphenyl)-3-(4-(2-hydroxyethyl)piperazin-1-yl)-1-(2-propoxyethyl)pyrido[3,4-b]pyrazin-2(1H)-one [Example 15]
Second: CCCOCCn1c(=O)c(N2CCNCC2)nc2cnc(-c3ccc(OC)nc3)cc21 [Example 1, 7-(6-methoxypyridin-3-yl)-3-(piperazin-1-yl)-1-(2-propoxyethyl)pyrido[3,4-b]pyrazin-2(1H)-one]
The pIC50 of the first is 2.56 log units lower: 5.92 for the first, 8.48 for the second.

First: CCCOCCn1c(=O)c(N2C[C@H]3C[C@@H]2CN3)nc2cnc(-c3ccc(OC)nc3)cc21 [Example 2, 3-[(1R,4R)-2,5-diazabicyclo[2.2.1]hept-2-yl]-7-(6-methoxypyridin-3-yl)-1-(2-propoxyethyl)pyrido[3,4-b]pyrazin-2(1H)-one]
Second: CCCOCCn1c(=O)c(N2CCOCC2)nc2cnc(-c3ccc(OC)nc3)cc21 [Example 3, 7-(6-methoxypyridin-3-yl)-3-morpholin-4-yl-1-(2-propoxyethyl)pyrido[3,4-b]pyrazin-2(1H)-one]
The pIC50 of the first is 0.38 log units lower: 8.62 for the first, 9.00 for the second.

CCCOCCn1c(=O)c(N2CCCC(O)C2)nc2cnc(-c3ccc(OC)nc3)cc21 (stereo not shown) [Example 4, 3-(3-hydroxypiperidin-1-yl)-7-(6-methoxypyridin-3-yl)-1-(2-propoxyethyl)pyrido[3,4-b]pyrazin-2(1H)-one] and CCCOCCn1c(=O)c(N2CCN(CCO)CC2)nc2cnc(-c3ccc(OC)nc3)cc21 [Example 5, 3-[4-(2-hydroxyethyl)piperazin-1-yl]-7-(6-methoxypyridin-3-yl)-1-(2-propoxyethyl)pyrido[3,4-b]pyrazin-2(1H)-one] are within 0.2 log units of each other in pIC50: 9.65 for the first, 9.69 for the second.

Compared with CCCOCCn1c(=O)c(N2CCCC(CO)C2)nc2cnc(-c3ccc(OC)nc3)cc21 (stereo not shown) [Example 6, 3-[3-(hydroxymethyl)piperidin-1-yl]-7-(6-methoxypyridin-3-yl)-1-(2-propoxyethyl)pyrido[3,4-b]pyrazin-2(1H)-one], CCCOCCn1c(=O)c(N2CCN(CC(=O)OC(C)(C)C)CC2)nc2cnc(-c3ccc(OC)nc3)cc21 [Example 7, tert-butyl {4-[7-(6-methoxypyridin-3-yl)-2-oxo-1-(2-propoxyethyl)-1,2-dihydropyrido[3,4-b]pyrazin-3-yl]piperazin-1-yl}acetate] is 0.58 log units higher in pIC50: 9.50 for the first, 10.08 for the second.

Compared with CCCOCCn1c(=O)c(N2CCN(CC(=O)O)CC2)nc2cnc(-c3ccc(OC)nc3)cc21 [Example 8, {4-[7-(6-methoxypyridin-3-yl)-2-oxo-1-(2-propoxyethyl)-1,2-dihydropyrido[3,4-b]pyrazin-3-yl]piperazin-1-yl}acetic acid], CCCOCCn1c(=O)c(N2CCN(CCO)[C@@H](C)C2)nc2cnc(-c3ccc(OC)nc3)cc21 [Example 9, 3-[(3S)-4-(2-hydroxyethyl)-3-methylpiperazin-1-yl]-7-(6-methoxypyridin-3-yl)-1-(2-propoxyethyl)pyrido[3,4-b]pyrazin-2(1H)-one] is 0.32 log units higher in pIC50: 9.29 for the first, 9.61 for the second. The second is the more potent here.

CCCOCCn1c(=O)c(N2CC(C)N(CCCO)C(C)C2)nc2cnc(-c3ccc(OC)nc3)cc21 (stereo not shown) [Example 10, 3-[4-(3-hydroxypropyl)-3,5-dimethylpiperazin-1-yl]-7-(6-methoxypyridin-3-yl)-1-(2-propoxyethyl)pyrido[3,4-b]pyrazin-2(1H)-one] and CCCOCCn1c(=O)c(N2CCN(CCCO)CC2)nc2cnc(-c3ccc(OC)nc3)cc21 [Example 11, 3-[4-(3-hydroxypropyl)piperazin-1-yl]-7-(6-methoxypyridin-3-yl)-1-(2-propoxyethyl)pyrido[3,4-b]pyrazin-2(1H)-one] are within 0.2 log units of each other in pIC50: 9.71 for the first, 9.75 for the second.

Going from CCCOCCn1c(=O)c(N2CCCN(CCO)CC2)nc2cnc(-c3ccc(OC)nc3)cc21 [Example 12, 3-[4-(2-hydroxyethyl)-1,4-diazepan-1-yl]-7-(6-methoxypyridin-3-yl)-1-(2-propoxyethyl)pyrido[3,4-b]pyrazin-2(1H)-one] to CCCOCCn1c(=O)c(N2CCN(CCO)CC2)nc2cnc(-c3ccc(Cl)cc3)cc21 [Example 13, 7-(4-chlorophenyl)-3-(4-(2-hydroxyethyl)piperazin-1-yl)-1-(2-propoxyethyl)pyrido[3,4-b]pyrazin-2(1H)-one], the pIC50 falls from 9.14 to 8.87 (0.27 log units).

First: CCCOCCn1c(=O)c(N2CCN(CCO)CC2)nc2cnc(-c3ccc(O)cc3)cc21 [Example 14, 3-(4-(2-hydroxyethyl)piperazin-1-yl)-7-(4-hydroxyphenyl)-1-(2-propoxyethyl)pyrido[3,4-b]pyrazin-2(1H)-one]
Second: CCCOCCn1c(=O)c(N2CCN(CCO)CC2)nc2cnc(-c3cccc(Cl)c3)cc21 [Example 16, 7-(3-chlorophenyl)-3-(4-(2-hydroxyethyl)piperazin-1-yl)-1-(2-propoxyethyl)pyrido[3,4-b]pyrazin-2(1H)-one]
The pIC50 of the first is 2.40 log units lower: 6.08 for the first, 8.48 for the second.

First: CCCOCCn1c(=O)c(N2CCN(CCO)CC2)nc2cnc(-c3ccc(OC)cc3)cc21 [Example 17, 3-(4-(2-hydroxyethyl)piperazin-1-yl)-7-(4-methoxyphenyl)-1-(2-propoxyethyl)pyrido[3,4-b]pyrazin-2(1H)-one]
Second: CCCOCCn1c(=O)c(N2CCN(CCO)CC2)nc2cnc(-c3ccc(F)cc3F)cc21 [Example 18, 7-(2,4-difluorophenyl)-3-(4-(2-hydroxyethyl)piperazin-1-yl)-1-(2-propoxyethyl)pyrido[3,4-b]pyrazin-2(1H)-one]
The pIC50 of the first is 0.59 log units higher: 8.11 for the first, 7.52 for the second. The first is the more potent here.

Compared with CCCOCCn1c(=O)c(N2CCN(CCO)CC2)nc2cnc(-c3ccc(S(=O)(=O)CC)cc3)cc21 [Example 19, 7-(4-(ethylsulfonyl)phenyl)-3-(4-(2-hydroxyethyl)piperazin-1-yl)-1-(2-propoxyethyl)pyrido[3,4-b]pyrazin-2(1H)-one], CCCOCCn1c(=O)c(N2CCN(CCO)CC2)nc2cnc(-c3cccc(OC)c3F)cc21 [Example 20, 7-(2-fluoro-3-methoxyphenyl)-3-(4-(2-hydroxyethyl)piperazin-1-yl)-1-(2-propoxyethyl)pyrido[3,4-b]pyrazin-2(1H)-one] is 1.81 log units higher in pIC50: 6.99 for the first, 8.80 for the second.

First: CCCOCCn1c(=O)c(N2CCN(CCO)CC2)nc2cnc(-c3ccc(OC(C)C)cc3)cc21 [Example 21, 3-(4-(2-hydroxyethyl)piperazin-1-yl)-7-(4-isopropoxyphenyl)-1-(2-propoxyethyl)pyrido[3,4-b]pyrazin-2(1H)-one]
Second: CCCOCCn1c(=O)c(N2CCN(CCO)CC2)nc2cnc(-c3cccc4cnccc34)cc21 [Example 22, 3-(4-(2-hydroxyethyl)piperazin-1-yl)-7-(isoquinolin-5-yl)-1-(2-propoxyethyl)pyrido[3,4-b]pyrazin-2(1H)-one]
The pIC50 of the first is higher: 6.38 for the first, < 5.70 for the second. The first is the more potent here.

CCCOCCn1c(=O)c(N2CCN(CCO)CC2)nc2cnc(-c3ccc(CO)cc3)cc21 [Example 23, 3-(4-(2-hydroxyethyl)piperazin-1-yl)-7-(4-(hydroxymethyl)phenyl)-1-(2-propoxyethyl)pyrido[3,4-b]pyrazin-2(1H)-one] and CCCOCCn1c(=O)c(N2CCN(CCO)CC2)nc2cnc(-c3ccc(OCC)cc3)cc21 [Example 24, 7-(4-ethoxyphenyl)-3-(4-(2-hydroxyethyl)piperazin-1-yl)-1-(2-propoxyethyl)pyrido[3,4-b]pyrazin-2(1H)-one] are within 0.2 log units of each other in pIC50: 5.75 for the first, 5.85 for the second.

With CCCOCCn1c(=O)c(N2CCN(CCO)CC2)nc2cnc(-c3ccc(F)c(C)c3)cc21 [Example 25, 7-(4-fluoro-3-methylphenyl)-3-(4-(2-hydroxyethyl)piperazin-1-yl)-1-(2-propoxyethyl)pyrido[3,4-b]pyrazin-2(1H)-one] the pIC50 was 8.73.
